Experimental data reported in patent US20020049157A1, “Use of proteasome inhibitors for treating cancer, inflammation, autoimmune disease, graft rejection and septic shock” (priority 1998, published 2002).

Key:
[1] = tested on: Jurkat cells; experiment: Respiration (O2 consumption) of Jurkat cells, oxygen electrode; format: cell-based
From the text: The function of Complex I of digitonin (Dig)-permeated Jurkat cells was blocked by rotenone (Rot), and the respiration was resumed by adding succinate (Suc), which provides electrons to Complex II directly and thus bypasses Complex I. The maximal respiration was achieved by adding CCCP (carbonyl cyanide m-chlorophenylhydrazone), which uncouples the oxidation and phosphorylation. The respiration could be blocked by antimycin A (Ant), which inhibits […]. Curves 1 and 6 represent positive controls of rat kidney mitochondria. Curves 2 and 5 represent normals untreated Jurkat cells. Curves 3 and 4 represent Jurkat cells treated with lactacystin (6 μM) for 2 h and 4 h, respectively.
Complex III in the respiration chain was blocked at Complex III antimycin (Ant), and the electron flow was resumed by addiind ascorbate (Asc) and TMPD (tetramethyl-p-phenyl-enediamine).
The assay system is identical to that described in FIG. 16. Jurkat cells were treated with LAC for 4 h (curve 3). The decoupling reagent used in this experiment to achieve maximal respiration is FCCP (carbonylcyanide-p-trifluoromethoxyphenylhydrazone).
The Jurkat Cells (JC) (30×10^6/ml) or rat kidney proximal tubules mitochondria (RKM) (0.5 mg of protein/ml) were incubated in 1 ml measuring chamber at 37° C. in a respiration buffer containing 200 mM sucrose, 5 mM MgCl2, 5 mM KH2PO4, and 30 mM HEPES-Tris (pH 7.5). During respiration experiments following substrates and inhibitors were used: 0.005% Digitonine (Dig); 10 mM Succinate (Suc); 1 mM Ascorbate (Asc); 0.4 mM tetramethyl-p- phenylenediamine (TMPD); 1 μM CCCP, 1 μM FCCP; 0.1 μM Rotenone (Rot); 50 nM Antimycin A (Anti); 1 mM KCN; 100 μM Cytochrome C (Cyt C). The respiration rate of the Jurkat Cells and mitochondria was measured polarographically with a Clarke oxygen electrode (Yellow Springs Instruments, Yellow Springs, Ohio, U.S.A.) using 1 ml thermojacketed chamber. Oxygen concentration was calibrated with air-saturated buffer using Hypoxanthine—Xanthine Oxidase—Catalase system (“chemical zero”). Oxygen consumption was continuously recorded using a “MacLab/8” (Analog Digital Instruments, U.S.A.) connected to a Macintosh SE computer and the MacLab Chart v.3.3.4 software. Rates of oxygen consumption are expressed as ng-atoms of oxygen/min.

[2] = tested on: Peripheral blood T cells; experiment: S phase entry of mitogen-stimulated peripheral blood T cells (flow cytometry); format: cell-based, human; settings: PHA; for cell death: evaluated at 40 h, data not shown
Description: C and D. LAC blocks the S phase entry of the mitogen-stimulated peripheral blood T cells Peripheral blood T cells were stimulated with PHA (2 μ/ml) in the absence or presence of LAC (10 μM, added at 0 h, 16 h, 24 h, or 40 h, as indicated in the bottom of the panels). For the flow cytometry analysis of the cell cycle progress, the cells were harvested at 0 h, 1 6 h, 40 h and 64 h as indicated on the top of the panels (FIG. 6C). For ^3H-thymidine uptake, the triplicated cell samples were pulsed at 48 h and harvested at 64 h (FIG. 6D).
T cells from PBMC were at Go when isolated. After 16 h stimulation with PHA, they remained before the S phase (FIG. 6C). At 40 h, about 20% of the cells were in the S and G2/M phases. The peak of ^3H-thymidine uptake according to a 16 h pulse was between 48 h and 64 h (data not shown), although at 64 h, the cells in the S and G2/M phases were still about 20% (FIG. 6C). The lack of an increase in percentage of cells in the S and G2/M phases at 64 h compared with that at 40 h was likely due to the exit of the cells from the S and G2/M phase. It is to be noted that the cycling T cells in this system never reaches 100%, because about 15% of the cells were non T cells, and an additional 20% were non responsive T cells. Taken the cell proliferation and cell cycle analysis together, the G1/S boundary of the cycling T cells should be between about 35 h and 48 h after the PHA stimulation. The boundary was broad because the synchronization was not ideal.
In this model, the role of the proteasome in the S phase entry was examined. […] We have noticed that when the cell viability was evaluated at 40 h, there was an increase of cell death comparing the 16 h addition of LAC with the 0 h addition (about 25% vs about 17%, data not shown). The increased cell death was also reflected in the cells with <2N DNA in the 40 h histogram. However, such a viability was still reasonable and would not invalidate our conclusion. […] The discrepancy could be explained by the fact that the 20% cells were already in the S and G2/M phases at 40 h when LAC was added. LAC prevented additional cells from entering into the S phase, therefore the lack ^3H-thymidine uptake.
Flow cytometry was employed for cell cycle analysis for T cells and Jurkat cells as described before (Shan et al., 1994, supra) using propidium iodide staining.

[3] = tested on: proteasome; experiment: Proteasome activity in lysates of LAC-pretreated Jurkat cells (proteinase assay, sLLVY-MCA); format: cell-based; settings: for proteasome activity in Jurkat cells: 3 h preincubation with LAC 6 μM
Description: B. The inhibitory effect of LAC on the proteasome activity was reversible in the cells Jurkat cells were pretreated with LAC (6 μM) in culture medium for 3 h. The cells were washed and recultured at 0.5×10^6 cells/ml for 0 h, 5 h or 21 h. The cells were then harvested, washed and sonicated. The lysate protein (20 μg/sample) was assayed for its proteinase activity under a condition at which 90% of the activity was attributed to the proteasome. The samples were in duplicates. The result is expressed as relative fluorescence intensity at 440 nm.
We used Jurkat cells that have high constitutive proteasome activity to evaluate the duration of LAC's effect once the drug entered the cells. Jurkat cells were treated with LAC (6 μM) for 3 h, which was sufficiently long for the compound to enter the cells as shown above. The cells were then thoroughly washed and recuitured, and they were harvested at 0 h, 5 h and 21 h after the wash, and the proteasome activity in the cell lysates was measured using a chromogenic chymotrypsin substrate. We have previously established that the proteinase activity measured by this assay was predominantly (more than 90%) derived from the proteasome (Wang et al., 1997, Eur. J. Immunol., supra).

For `CC(=O)N[C@@H](CSC(=O)[C@]1([C@@H](O)C(C)C)NC(=O)[C@H](C)[C@@H]1O)C(=O)O` [LAC, lactacystin], the “respiration after Complex I blockage (rotenone) on adding succinate” value ([1]; LAC 6 μM for 4 h) was “could not be resumed by adding succinate”, the “O2 consumption after Complex III (ascorbate and TMPD)” value ([1]; LAC for 4 h) was “could not be resumed by ascorbate and TMPD” and the “O2 consumption after the addition of ascorbate and TMPD” value ([1]; LAC for 4 h, FCCP as decoupling reagent) was “reduced augmentation of O2 consumption”. For the same compound, the “electron transport of the respiratory chain” value ([1]; within 4 h) was “reduce the electron transport at the complex IV”, the S phase entry ([2]; LAC 10 μM added once at 16 h, examined at 40 h) was “totally block the S phase entry” and the cell death ([2]; LAC added at 0 h) was “about 17%”. The cell death ([2]; LAC added at 16 h) was “about 25%”, the “percentage of the population in the S and G2/M phase” value ([2]; LAC added at 40 h or not, at 64 h) was “no difference” and the “active duration within the cell and in the culture media” value [3] was “about 16 h”. For the same compound, the “proteasome activity in Jurkat cells” value ([3]; 0 h after wash) was “almost completely inhibited”, the “proteasome activity in Jurkat cells” value ([3]; 5 h after wash) was “still significantly inhibited” and the “proteasome activity in Jurkat cells” value ([3]; 21 h after wash) was “returned to a near-normal level”. For the same compound, the “time in which LAC loses its activity in the cells” value ([3]; Jurkat cells after 3 h LAC 6 μM and wash) was ≤ 21 h.
